The values that follow come from patent US7943628B2, “Pyrimidine derivatives” (Pfizer Limited, priority 2005, dated 2011).

Molecules are shown by their SMILES.

T1 sequence (Q9H3N8 whole entry): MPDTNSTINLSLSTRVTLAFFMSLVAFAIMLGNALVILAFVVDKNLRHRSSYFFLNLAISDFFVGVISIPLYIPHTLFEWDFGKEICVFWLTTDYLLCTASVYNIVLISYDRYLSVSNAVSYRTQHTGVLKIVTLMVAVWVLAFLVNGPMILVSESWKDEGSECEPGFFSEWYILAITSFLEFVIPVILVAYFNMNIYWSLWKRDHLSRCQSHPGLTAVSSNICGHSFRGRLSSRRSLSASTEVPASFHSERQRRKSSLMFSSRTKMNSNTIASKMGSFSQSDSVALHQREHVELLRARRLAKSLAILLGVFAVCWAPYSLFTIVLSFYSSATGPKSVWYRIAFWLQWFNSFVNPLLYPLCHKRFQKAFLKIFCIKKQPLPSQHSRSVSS

One experiment addresses T1, histamine H4 receptor (Homo sapiens, UniProt Q9H3N8).
T1 construct: expressed in transfected cells; host or cells: CHO cells
As to the kind of experiment: H4 binding, method 2 ([3H]-histamine binding with Ysi WGA beads on CHO cell membranes). The note with it: H4 binding, method 2; Ki calculated from IC50 (Cheng-Prussoff); read-out: Method 2 (Ki (nM)). How it is done: Cell pellets from CHO cells expressing the histamine H4 receptor were homogenised in ice-cold 50 mM Tris-HCl/0.5 mM CaCl2 buffer containing a protease inhibitor cocktail (Roche®, United Kingdom) using a ground glass homogeniser. Homogenates were centrifuged at 48000 g for 30 min at 4° C. The membrane pellet was resuspended in fresh buffer and the centrifugation step was repeated as described above. The membrane pellet was resuspended in 50 mM Tris-HCl in the same volume as the original cell pellet. Aliquots of membrane preparations were stored at −80° C. and were used for [^3H]-Histamine binding experiments.
Cell membranes (15 μg/well) were pre-incubated for 120 min shaking at 4° C. with Ysi WGA beads (250 μg/well) in 50 mM Tris-HCl (pH 7.4) followed by centrifugation at 1500 rpm for 5 minutes and resuspension in 50 mM Tris-HCl (pH 7.4). The membrane/bead mixture (15 μg membrane/250 μg beads well) was incubated for 90 minutes shaking at room temperature with 6.5 nM [2,5-^3H] Histamine dihydrochloride (30-60 Ci/mmol) in 50 mM Tris-HCl (pH 7.4), with or without competing H4 ligands. Non-specific binding was defined with 10 μM JNJ7777120. Bound radiolabel was determined using scintillation counting techniques after 90 minutes.
A word on the Ki: it is a dissociation constant, usually derived from enzyme kinetics or from competition with a known ligand. With `CC(C)(C)CCNc1cc(N2C[C@H]3CCCN[C@H]3C2)nc(N)n1` (racemic) [Example 23, N^4-(3,3-Dimethylbutyl)-6-[(4aR*,7aR*)-octahydro-6H-pyrrolo[3,4-b]pyridin-6-yl]pyrimidine-2,4-diamine], the inhibition constant (Ki) is 824 nM.

With `CNc1cc(N2C[C@H]3CCCN[C@H]3C2)nc(N)n1` (racemic) [Example 25, N^4-Methyl-6-[(4aR*,7aR*)-octahydro-6H-pyrrolo[3,4-b]pyridin-6-yl]pyrimidine-2,4-diamine], the Ki was 154 nM.

In the case of `CC(C)(C)CCNc1cc(N2C[C@H]3CCCN[C@H]3C2)ncn1` (racemic) [Example 328, N-(3,3-Dimethylbutyl)-6-[(4aR*,7aR*)-octahydro-6H-pyrrolo[3,4-b]pyridin-6-yl]pyrimidin-4-amine], the Ki is 554 nM.

Take `c1nc(NCC2CC2)cc(N2C[C@H]3CCCN[C@H]3C2)n1` (relative stereo) [Example 123, N-(Cyclopropylmethyl)-6-[(4aR*,7aR*)-octahydro-6H-pyrrolo[3,4-b]pyridin-6-yl]pyrimidin-4-amine]: the Ki is 103 nM. In the case of `CC(C)CNc1cc(N2C[C@H]3CCCN[C@H]3C2)ncn1` (relative stereo) [Example 125, N-Isobutyl-6-[(4aR*,7aR*)-octahydro-6H-pyrrolo[3,4-b]pyridin-6-yl]pyrimidin-4-amine], the inhibition constant (Ki) is 223 nM. The same measure, in the same setting: the value for `CCNc1cc(N2CC[C@@H](NC)C2)nc(N)n1` [Example 12, N^4-Ethyl-6-[(3R)-3-(methylamino)pyrrolidin-1-yl]pyrimidine-2,4-diamine] was 52.4 nM; that for `CCNc1cc(N2CC[C@@H](NC)C2)ncn1` [Example 13, N-Ethyl-6-[(3R)-3-(methyl-amino)pyrrolidin-1-yl]pyrimidin-4-amine] was 51.8 nM. Take `CN[C@@H]1CCN(c2cc(NCC3CC3)ncn2)C1` [Example 15, N-(Cyclopropylmethyl)-6-[(3R)-3-(methylamino)pyrrolidin-1-yl] pyrimidin-4-amine]: the inhibition constant Ki was 19.2 nM. Still for that read-out and setting: the value for `CCNc1cc(N2CC[C@H](NC)C2)ncn1` [Example 16, N-Ethyl-6-[(3S)-3-(methyl-amino)pyrrolidin-1-yl] pyrimidin-4-amine] was 1740 nM; that for `CN[C@H]1CCN(c2cc(NCCC(C)(C)C)ncn2)C1` [Example 17, N-(3,3-Dimethylbutyl)-6-[(3S)-3-(methylamino)pyrrolidin-1-yl]pyrimidin-4-amine] was 483 nM. Turning to `CN(C)[C@@H]1CCN(c2cc(NCCC(C)(C)C)ncn2)C1` [Example 18, 6-[(3R)-3-(Dimethylamino)pyrrolidin-1-yl]-N-(3,3-dimethylbutyl)pyrimidin-4-amine], the inhibitory constant (Ki) was 387 nM. Turning to `CN(C)[C@@H]1CCN(c2cc(NCC3CC3)ncn2)C1` [Example 19, N-(Cyclopropylmethyl)-6-[(3R)-3-(dimethylamino)pyrrolidin-1-yl]pyrimidin-4-amine], the inhibition constant Ki is 132 nM. Still for that read-out and setting: the value for `CCNc1cc(N2CC[C@@H](N(C)C)C2)ncn1` [Example 21, 6-[(3R)-3-(Dimethylamino)pyrrolidin-1-yl]-N-ethyl-pyrimidin-4-amine] was 722 nM; that for `CCCNc1cc(N2C[C@H]3CN(C)C[C@H]3C2)nc(N)n1` [Example 34, 6-[(3aR*,6aS*)-5-Methylhexahydropyrrolo[3,4-c]pyrrol-2(1H)-yl]-N^4-propylpyrimidine-2,4-diamine] was 452 nM. The same measure, in the same setting: with `CNc1cc(N2C[C@H]3CN(C)C[C@H]3C2)nc(N)n1` [Example 35, N^4-Methyl-6-[(3aR*,6aS*)-5-methylhexahydro-pyrrolo[3,4-c]pyrrol-2(1H)-yl]pyrimidine-2,4-diamine] the figure was 662 nM; with `CCNc1cc(N2C[C@H]3CN(C)C[C@H]3C2)nc(N)n1` [Example 36, N^4-Ethyl-6-[(3aR*,6aS*)-5-methylhexahydro-pyrrolo[3,4-c]pyrrol-2(1H)-yl]pyrimidine-2,4-diamine], 1620 nM. For `CC(C)CNc1cc(N2C[C@H]3CN(C)C[C@H]3C2)nc(N)n1` [Example 37, N^4-Isobutyl-6-[(3aR*,6aS*)-5-methylhexahydro-pyrrolo[3,4-c]pyrrol-2(1H)-yl]pyrimidine-2,4-diamine], the Ki is 181 nM.

On to `CN1C[C@@H]2CN(c3cc(NCC4CC4)nc(N)n3)C[C@@H]2C1` [Example 38, N^4-(Cyclopropylmethyl)-6-[(3aR*,6aS*)-5-methylhexahydro-pyrrolo[3,4-c]pyrrol-2(1H)-yl]pyrimidine-2,4-diamine], for which the Ki is 128 nM. Consider `CN1C[C@@H]2CN(c3cc(NCCC(C)(C)C)nc(N)n3)C[C@@H]2C1` [Example 40, N^4-(3,3-Dimethylbutyl)-6-[(3aR*,6aS*)-5-methylhexahydro-pyrrolo[3,4-c]pyrrol-2(1H)-yl]pyrimidine-2,4-diamine], for which the Ki was 192 nM.

The same experiment, now with this note: Method 2 (Ki (nM)), H4 binding, method 2; Ki calculated from IC50 (Cheng-Prussoff).
`CC(C)Nc1cc(N2C[C@H]3CCCN[C@H]3C2)nc(N)n1` (racemic) [Example 24, N^4Isopropyl-6-[(4aR*,7aR*)-octahydro6H-pyrrolor[3,4-b]pyridin-6-yl]pyrimidine-2,4-diamine]: the inhibition constant Ki is 30.8 nM. On to `CCNc1cc(N2C[C@H]3CCCN[C@H]3C2)nc(N)n1` (racemic) [Example 26, N^4-Ethyl-6-[(4aR*,7aR*)-octahydro-6H-pyrrolo[3,4-b]pyridin-6-yl]pyrimidine-2,4-diamine], for which the Ki was 30 nM. Consider `CC(C)CNc1cc(N2C[C@H]3CCCN[C@H]3C2)nc(N)n1` (racemic) [Example 27, N^4-Isobutyl-6-[(4aR*,7aR*)-octahydro-6H-pyrrolo[3,4-b]pyridin-6-yl]pyrimidine-2,4-diamine], for which the Ki was 22.4 nM.

With `Nc1nc(NCC2CC2)cc(N2C[C@H]3CCCN[C@H]3C2)n1` (racemic) [Example 28, N^4-(Cyclopropylmethyl)-6-[(4aR*,7aR*)-octahydro-6H-pyrrolo[3,4-b]pyridin-6-yl] pyrimidine-2,4-diamine], the Ki was 21.3 nM. Take `CC(C)CCNc1cc(N2C[C@H]3CCCN[C@H]3C2)nc(N)n1` (racemic) [Example 29, N^4-(3-Methylbutyl)-6-[(4aR*, 7aR*)-octahydro-6H-pyrrolo [3,4-b]pyridin-6-yl] pyrimidine-2,4-diamine]: the Ki is 82.9 nM. For the compound `Nc1nc(NC2CC2)cc(N2C[C@H]3CCCN[C@H]3C2)n1` (racemic) [Example 31, N^4-Cyclopropyl-6-[(4aR*,7aR*)-octahydro-6H-pyrrolo[3,4-b]pyridin-6-yl] pyrimidine-2,4-diamine], the inhibition constant Ki was 21.1 nM.

Take `Nc1nc(NC2CCC2)cc(N2C[C@H]3CCCN[C@H]3C2)n1` (racemic) [Example 32, N^4-Cyclobutyl-6-[(4aR*,7aR*)-octahydro-6H-pyrrolo[3,4-b]pyridin-6-yl] pyrimidine-2,4-diamine]: the inhibitory constant (Ki) is 20.9 nM. Still for that read-out and setting: the value for `Nc1nc(NCC2CCCC2)cc(N2C[C@H]3CCCN[C@H]3C2)n1` (racemic) [Example 33, N^4-(Cyclopentylmethyl)-6-[(4aR*,7aR*)-octahydro-6H-pyrrolo[3,4-b]pyridin-6-yl] pyrimidine-2,4-diamine] was 84.1 nM. As to `CC(C)(C)CNc1cc(N2C[C@H]3CCCN[C@H]3C2)ncn1` (racemic) [Example 127, N-(2,2-Dimethylpropyl)-6-[(4aR*,7aR*)-octahydro-6H-pyrrolo[3,4-bjpyridin-6-yl]pyrimidin-4-amine], the Ki is 65.8 nM.

Regarding `CN1C[C@@H]2CN(c3cc(NCC(C)(C)C)nc(N)n3)C[C@@H]2C1` [Example 39, N^4-(2,2-Dimethylpropyl)-6-[(3aR*,6aS*)-5-methylhexahydro-pyrrolo[3,4-c]pyrrol-2(1H)-yl]pyrimidine-2,4-diamine], the Ki was 88.9 nM.

In another experiment the target is T1, histamine H4 receptor. The experiment can be described thus: H4 binding, method 1 ([3H]-histamine filtration binding on CHO cell membranes). To be noted: 1.5 h. In short, it runs like this:
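Membranes from CHO cells expressing human H4 receptor (20-35 μg/well) incubated 90 min at room temperature with 3 nM [3H]-histamine in 50 mM Tris-HCl pH 7.4, ± competitor. Bound label separated by filtration on PEI-soaked GF/B filters and counted by scintillation; non-specific binding with 10 μM JNJ7777120.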
The inhibition is the relative decrease from the control value, in per cent. Read a high inhibition as a response far below the control. `Nc1nc(NCC2CC2)cc(N2CC(N3CCOCC3)C2)n1` [Example 322, N^4-(Cyclopropylmethyl)-6-(3-morpholin-4-ylazetidin-1-yl)pyrimidine-2,4-diamine] had an inhibition at 20 µM of 57%. The compound `CCCNc1cc(N2CCCC(NC)C2)nc(N)n1` (stereo not shown) [Example 323, 6-[3-(Methylamino)piperidin-1-yl]-N^4-propylpyrimidine-2,4-diamine] registered an inhibition at 20 µM of 85%. For the compound `CCNc1cc(N2CCCC(NC)C2)nc(N)n1` (stereo not shown) [Example 324, N^4-Ethyl-6-[3-(methylamino)piperidin-1-yl]pyrimidine-2,4-diamine], at 20 µM the inhibition was 55%.

For the compound `CN[C@@H]1CCN(c2cc(NCc3ccc(F)cc3F)nc(N)n2)C1` [Example 325, N^4-(2,4-Difluorobenzyl)-6-[(3R)-3-(methylamino)pyrrolidin-1-yl]pyrimidine-2,4-diamine], at 20 µM the inhibition was 43%. The compound `CN[C@@H]1CCN(c2ncnc(NCC(C)(C)C)c2C)C1` [Example 326, N-(2,2-Dimethylpropyl)-5-methyl-6-[(3R)-3-(methylamino)pyrrolidin-1-yl]pyrimidin-4-amine] registered an inhibition at 20 µM of 48%.
